Laboratory results reported in patent US9968596B2 (Celgene Corporation, priority 2014, dated 2018).
Where a name gives a salt, the structure may show the parent alone.

Test system: KG-1 cell line
Test: Effect of test compounds on KG-1 cell proliferation (Cell Titer-Glo viability, 72 hours)
Assay type: cell-based
Details: Homo sapiens, read-out: FCA Prolif Cell TiterGlo KG-1 72 h (IC50)
Method: The anti-proliferative activity of the test compound was evaluated on KG-1 cell line (American Type Culture Collection [ATCC]: catalogue number ATCC® CCL-246™) at 72 hours post-treatment. The seeding density for KG-1 was optimized to ensure assay linearity in 384-well plates.
Increasing concentrations of the test compound (0.5 nM to 10 μM) were spotted in a 10-point serial dilution fashion (3-fold dilution) in duplicate via an acoustic dispenser (EDC ATS-100) into an empty 384-well plate. The dimethyl sulfoxide (DMSO) concentration was kept constant for a final assay concentration of 0.1% DMSO. Prior to testing, KG-1 cells were grown in RPMI-1640 (Roswell Park Memorial Institute—1640) medium with 10% FBS (fetal bovine serum: HyClone) and expanded in culture flasks to provide sufficient amounts of starting material. Cells were then diluted to 5000 cells per well, in a 50 μL volume and added directly to the compound-spotted 384-well plates. Cells were allowed to grow for 72 hours in 5% CO2 at 37° C. At the time when exposure of cells to compound began (t0), initial viable cell number was assessed via Cell Titer-Glo® Luminescent Cell Viability Assay at a 1 vol:2 vol ratio according to manufacturer's instructions (Promega Corporation, Madison, Wis.) by quantifying the level of luminescence generated by adenosine-5′-triphosphate (ATP) present in viable cells. After 72 hours, cell viability of t-treated cells was assessed via Cell Titer-Glo® and read for luminescence.

| Compound | IC50 [nM] |
| --- | --- |
| COc1ccc(C(F)(F)C(=O)NCc2ccc3c(c2)CN(C2CCC(=O)NC2=O)C3=O)cc1 (centres unmarked) [Example 3] | 100 to 10000 |
| O=C1CCC(N2Cc3cc(CNC(=O)C(F)(F)c4ccc(F)cc4)ccc3C2=O)C(=O)N1 (centres unmarked) [Example 5] | 10 to 50 |
| O=C1CCC(N2Cc3cc(CNC(=O)C(F)(F)c4ccccc4Cl)ccc3C2=O)C(=O)N1 (centres unmarked) [Example 8] | 100 to 10000 |
| O=C1CCC(N2Cc3cc(CNC(=O)C(F)(F)c4c(F)cccc4F)ccc3C2=O)C(=O)N1 (centres unmarked) [Example 14] | 100 to 10000 |
| Cc1ccccc1C(F)(F)C(=O)NCc1ccc2c(c1)CN(C1CCC(=O)NC1=O)C2=O (centres unmarked) [Example 15, N-((2-(2,6-dioxopiperidin-3-yl)-1-oxoisoindolin-5-yl)methyl)-2,2-difluoro-2-(o-tolyl)acetamide] | 10 to 50 |
| CC(C)Oc1ccc(C(F)(F)C(=O)NCc2ccc3c(c2)CN(C2CCC(=O)NC2=O)C3=O)cc1 (centres unmarked) [Example 22] | 10 to 50 |
| O=C1CCC(N2Cc3cc(CNC(=O)C(F)(F)c4ccc(F)c(F)c4)ccc3C2=O)C(=O)N1 (centres unmarked) [Example 23] | 100 to 10000 |
| O=C1CCC(N2Cc3cc(CNC(=O)C(F)(F)c4cccc(F)c4)ccc3C2=O)C(=O)N1 (centres unmarked) [Example 24] | 100 to 10000 |
| O=C1CCC(N2Cc3cc(CNC(=O)C(F)(F)C4(O)CCCC4)ccc3C2=O)C(=O)N1 (centres unmarked) [Example 66] | 100 to 10000 |
| CC(C)(F)c1ccc(C(F)(F)C(=O)NCc2ccc3c(c2)CN(C2CCC(=O)NC2=O)C3=O)cc1 (centres unmarked) [Example 92] | 50 to 100 |
| CC(C)(C)c1ccc(C(F)(F)C(=O)NCc2ccc3c(c2)CN(C2CCC(=O)NC2=O)C3=O)nc1 (centres unmarked) [Example 96, hydrochloride] | 10 to 50 |
| O=C1CCC(N2Cc3cc(CNC(=O)C(F)(F)c4ccc(C5CC5)cn4)ccc3C2=O)C(=O)N1 (centres unmarked) [Example 97] | 100 to 10000 |
| O=C1CCC(N2Cc3cc(CNC(=O)C(F)(F)c4ccc(F)cc4OC(F)(F)F)ccc3C2=O)C(=O)N1 (centres unmarked) [Example 100] | 50 to 100 |
| CS(=O)(=O)c1cccc(C(F)(F)C(=O)NCc2ccc3c(c2)CN(C2CCC(=O)NC2=O)C3=O)c1 (centres unmarked) [Example 103] | 100 to 10000 |
| Nc1ncc(C(F)(F)C(=O)NCc2ccc3c(c2)CN(C2CCC(=O)NC2=O)C3=O)cn1 (centres unmarked) [Example 104] | 100 to 10000 |
| Cn1nc(C(F)(F)C(=O)NCc2ccc3c(c2)CN(C2CCC(=O)NC2=O)C3=O)ccc1=O (centres unmarked) [Example 107] | 100 to 10000 |
| CN1CCN(c2cccc(C(F)(F)C(=O)NCc3ccc4c(c3)CN(C3CCC(=O)NC3=O)C4=O)c2)CC1 (centres unmarked) [Example 114, hydrochloride] | 100 to 10000 |
